For the test, the target named is T1, human kinase Mps-1 (Homo sapiens, UniProt P33981).
T1 construct: N-terminally GST-tagged human full length recombinant Mps-1 kinase; GST (N); purchased Invitrogen, Karslruhe, Germany PV4071
T1 sequence (P33981 1-857): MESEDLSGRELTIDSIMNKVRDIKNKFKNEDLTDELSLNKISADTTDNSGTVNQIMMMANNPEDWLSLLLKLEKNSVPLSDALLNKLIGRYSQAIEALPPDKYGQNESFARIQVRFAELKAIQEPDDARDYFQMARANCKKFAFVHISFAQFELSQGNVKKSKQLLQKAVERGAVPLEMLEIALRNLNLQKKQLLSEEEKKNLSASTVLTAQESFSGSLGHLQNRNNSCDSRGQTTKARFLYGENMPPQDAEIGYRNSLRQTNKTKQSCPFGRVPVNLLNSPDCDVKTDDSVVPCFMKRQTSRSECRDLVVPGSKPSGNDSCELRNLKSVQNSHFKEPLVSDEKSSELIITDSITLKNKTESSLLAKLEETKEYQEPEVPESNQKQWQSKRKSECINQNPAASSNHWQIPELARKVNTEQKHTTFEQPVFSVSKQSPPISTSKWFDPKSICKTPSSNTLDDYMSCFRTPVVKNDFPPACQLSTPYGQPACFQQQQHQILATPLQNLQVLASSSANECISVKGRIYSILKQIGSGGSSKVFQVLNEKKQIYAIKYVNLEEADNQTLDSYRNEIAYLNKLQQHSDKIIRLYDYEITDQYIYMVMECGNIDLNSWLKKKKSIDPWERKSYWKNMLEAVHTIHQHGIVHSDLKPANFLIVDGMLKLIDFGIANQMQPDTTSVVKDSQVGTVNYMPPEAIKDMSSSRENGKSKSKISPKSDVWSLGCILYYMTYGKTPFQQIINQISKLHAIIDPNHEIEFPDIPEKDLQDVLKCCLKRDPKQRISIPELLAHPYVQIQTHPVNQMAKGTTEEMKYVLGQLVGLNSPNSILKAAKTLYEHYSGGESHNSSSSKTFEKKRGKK
The test can be described thus: Mps-1 kinase assay (TR-FRET). Format: biochemical. The note with it: N-terminally GST-tagged human full length recombinant Mps-1; 10 μM ATP; 1 μM peptide substrate; 15 min pre-incubation; 60 min at 22° C. The protocol:
The human kinase Mps-1 phosphorylates a biotinylated substrate peptide. Detection of the phosphorylated product is achieved by time-resolved fluorescence resonance energy transfer (TR-FRET) from Europium-labelled anti-phospho-Serine/Threonine antibody as donor to streptavidin labelled with cross-linked allophycocyanin (SA-XLent) as acceptor. Compounds are tested for their inhibition of the kinase activity.
N-terminally GST-tagged human full length recombinant Mps-1 kinase (purchased from Invitrogen, Karslruhe, Germany, cat. no PV4071) was used. As substrate for the kinase reaction a biotinylated peptide of the amino-acid sequence […] (C-terminus in amide form, purchased from Biosynthan GmbH, Berlin) was used.
The concentration of Mps-1 in the assay was adjusted to the activity of the enzyme lot and was chosen appropriate to have the assay in the linear range, typical enzyme concentrations were in the range of about 1 nM (final conc. in the 5 μl assay volume).
The resulting mixture was incubated 1 h at 22° C. to allow the binding of the phosphorylated peptide to the anti-phospho(Ser/Thr)-Europium-antibody. Subsequently the amount of phosphorylated substrate was evaluated by measurement of the resonance energy transfer from the Europium-labelled anti-phospho(Ser/Thr) antibody to the Streptavidin-XLent. Therefore, the fluorescence emissions at 620 nm and 665 nm after excitation at 350 nm was measured in a Viewlux TR-FRET reader (PerkinElmer LAS, Rodgau-Jügesheim, Germany). The “blank-corrected normalized ratio” (a Viewlux specific readout, similar to the traditional ratio of the emissions at 665 nm and at 622 nm, in which blank and Eu-donor crosstalk are subtracted from the 665 nm signal before the ratio is calculated) was taken as the measure for the amount of phosphorylated substrate.
On the technique in general: Time-resolved FRET reads energy transfer from a long-lived donor to a nearby acceptor.

Take `CC(C)CNc1nc(-c2ccc(Oc3ccccc3)cc2)cn2c(-c3ccc(C(=O)NC4CC4)cc3)cnc12` [Example 1-47, N-cyclopropyl-4-{8-[(2-methylpropyl)amino]-6-(4-phenoxyphenyl)imidazo[1,2-a]pyrazin-3-yl}benzamide]: the concentration for half-maximal inhibition (IC50) was found to be 78.9 nM. As to `CC(=O)c1ccc(-c2cn3c(-c4ccc(C(=O)NC5CC5)cc4)cnc3c(NCC(C)C)n2)cc1` [Example 1-48, 4-{6-(4-acetylphenyl)-8-[(2-methylpropyl)amino]imidazo[1,2-a]pyrazin-3-yl}-N-cyclopropyl-benzamide], the IC50 came out at 1.1 nM.

Regarding `CC(C)CNc1nc(-c2ccc(-c3ccccc3)cc2)cn2c(-c3ccc(C(=O)NC4CC4)cc3)cnc12` [Example 1-49, 4-{6-(biphenyl-4-yl)-8-[(2-methylpropyl)amino]imidazo[1,2-a]pyrazin-3-yl}-N-cyclopropyl-benzamide], the concentration for half-maximal inhibition (IC50) was 7.2 nM. Turning to `CC(C)CNc1nc(-c2ccc(C(C)(C)C)cc2)cn2c(-c3ccc(C(=O)NC4CC4)cc3)cnc12` [Example 1-50, 4-{6-(4-tert-butylphenyl)-8-[(2-methylpropyl)amino]imidazo[1,2-a]pyrazin-3-yl}-N-cyclo-propylbenzamide], the IC50 was 75.4 nM. Turning to `CC(C)CNc1nc(-c2ccccc2F)cn2c(-c3ccc(C(=O)NC4CC4)cc3)cnc12` [Example 1-51, N-cyclopropyl-4-{6-(2-fluorophenyl)-8-[(2-methylpropyl)amino]imidazo[1,2-a]pyrazin-3-yl}benzamide], the IC50 worked out at 3.7 nM. In the case of `CC(C)CNc1nc(-c2ccc(OC(F)(F)F)cc2)cn2c(-c3ccc(C(=O)NC4CC4)cc3)cnc12` [Example 1-52, N-cyclopropyl-4-{8-[(2-methylpropyl)amino]-6-[4-(trifluoromethoxy)phenyl]imidazo[1,2-a]pyrazin-3-yl}benzamide], the IC50 was determined as 31.4 nM. Turning to `CC(C)CNc1nc(-c2ccc(C(=O)Nc3ccccc3)cc2)cn2c(-c3ccc(C(=O)NC4CC4)cc3)cnc12` [Example 1-53, 4-{3-[4-(cyclopropyl-carbamoyl)phenyl]-8-[(2-methylpropyl)amino]imidazo[1,2-a]pyrazin-6-yl}-N-phenylbenzamide], the concentration for half-maximal inhibition (IC50) was 2.1 nM. Turning to `CC(C)CNc1nc(-c2cccc(C(=O)N3CCCC3)c2)cn2c(-c3ccc(C(=O)NC4CC4)cc3)cnc12` [Example 1-54, N-cyclopropyl-4-{8-[(2-methylpropyl)amino]-6-[3-(pyrrolidin-1-yl-carbonyl)phenyl]imidazo [1,2-a]pyrazin-3-yl} benzamide], the IC50 stood at 6.2 nM. As for `CC(C)CNc1nc(-c2cccc(C(=O)NCc3ccccc3)c2)cn2c(-c3ccc(C(=O)NC4CC4)cc3)cnc12` [Example 1-55, N-benzyl-3-{3-[4-(cyclo-propylcarbamoyl)phenyl]-8-[(2-methylpropyl)amino]imidazo[1,2-a]pyrazin-6-yl}benzamide], the concentration for half-maximal inhibition (IC50) came out at 4.6 nM. With `CC(C)CNc1nc(-c2cccc(C(=O)NC3CC3)c2)cn2c(-c3ccc(C(=O)NC4CC4)cc3)cnc12` [Example 1-56, N-cyclopropyl-3-{3-[4-(cyclopropylcarbamoyl)phenyl]-8-[(2-methylpropyl)amino]imidazo [1,2-a]pyrazin-6-yl} benzamide], the IC50 stood at 1.6 nM. As for `CC(C)CNc1nc(-c2cccc(C(=O)Nc3ccccc3)c2)cn2c(-c3ccc(C(=O)NC4CC4)cc3)cnc12` [Example 1-57, 3-{3-[4-(cyclopropyl-carbamoyl)phenyl]-8-[(2-methylpropyl)amino]imidazo[1,2-a]pyrazin-6-yl}-N-phenylbenzamide], the IC50 amounted to 10.4 nM. In the case of `CC(C)CNc1nc(-c2ccc(OC(C)C)cc2)cn2c(-c3ccc(C(=O)NC4CC4)cc3)cnc12` [Example 1-58, N-cyclopropyl-4-{8-[(2-methylpropyl)amino]-6-[4-(propan-2-yloxy)phenyl]imidazo[1,2-a]pyrazin-3-yl}benzamide] it was 27 nM; in that of `CC(C)CNc1nc(-c2ccc(C(C)C)cc2)cn2c(-c3ccc(C(=O)NC4CC4)cc3)cnc12` [Example 1-59, N-cyclopropyl-4-{8-[(2-methylpropyl)amino]-6-[4-(propan-2-yl)phenyl]imidazo[1,2-a]pyrazin-3-yl}benzamide], 55.7 nM; in that of `CC(C)CNc1nc(-c2cc(F)cc(F)c2)cn2c(-c3ccc(C(=O)NC4CC4)cc3)cnc12` [Example 1-60, N-cyclopropyl-4-{6-(3,5-difluorophenyl)-8-[(2-methylpropyl)amino]imidazo[1,2-a]pyrazin-3-yl}benzamide], 42.4 nM. As to `CC(C)CNc1nc(-c2ccc([N+](=O)[O-])cc2)cn2c(-c3ccc(C(=O)NC4CC4)cc3)cnc12` [Example 1-61, N-cyclopropyl-4-{8-[(2-methylpropyl)amino]-6-(4-nitrophenyl)imidazo [1,2-a]pyrazin-3-yl} benzamide], the IC50 was 2 nM.

Turning to `COc1ccc(-c2cn3c(-c4ccc(C(=O)NC5CC5)cc4)cnc3c(NCC(C)C)n2)cc1F` [Example 1-62, N-cyclopropyl-4-{6-(3-fluoro-4-methoxyphenyl)-8-[(2-methylpropyl)amino]imidazo[1,2-a]pyrazin-3-yl}benzamide], the half-inhibitory concentration (IC50) came to 6.7 nM.

On to `CC(C)CNc1nc(-c2ccc(F)c(F)c2)cn2c(-c3ccc(C(=O)NC4CC4)cc3)cnc12` [Example 1-63, N-cyclopropyl-4-{6-(3,4-difluorophenyl)-8-[(2-methylpropyl)amino]imidazo[1,2-a]pyrazin-3-yl}benzamide], for which the 50% inhibitory concentration (IC50) worked out at 7.7 nM. `CC(C)CNc1nc(-c2ccccc2Oc2ccccc2)cn2c(-c3ccc(C(=O)NC4CC4)cc3)cnc12` [Example 1-64, N-cyclopropyl-4-{8-[(2-methylpropyl)amino]-6-(2-phenoxyphenyl)imidazo[1,2-a]pyrazin-3-yl}benzamide]: the concentration for half-maximal inhibition (IC50) came out at 74.3 nM. With `CC(C)CNc1nc(-c2ccccc2O)cn2c(-c3ccc(C(=O)NC4CC4)cc3)cnc12` [Example 1-65, N-cyclopropyl-4-{6-(2-hydroxyphenyl)-8-[(2-methylpropyl)amino]imidazo[1,2-a]pyrazin-3-yl}benzamide] the figure was 8.5 nM; with `CC(C)CNc1nc(-c2cccc(O)c2)cn2c(-c3ccc(C(=O)NC4CC4)cc3)cnc12` [Example 1-66, N-cyclopropyl-4-{6-(3-hydroxyphenyl)-8-[(2-methylpropyl)amino]imidazo[1,2-a]pyrazin-3-yl}benzamide], 2.2 nM. As to `CC(C)CNc1nc(-c2ccc(O)cc2)cn2c(-c3ccc(C(=O)NC4CC4)cc3)cnc12` [Example 1-67, N-cyclopropyl-4-{6-(4-hydroxyphenyl)-8-[(2-methylpropyl)amino]imidazo[1,2-a]pyrazin-3-yl}benzamide], the IC50 is 3.5 nM. Take `COc1c(C)cc(-c2cn3c(-c4ccc(C(=O)NC5CC5)cc4)cnc3c(NCC(C)C)n2)cc1C` [Example 1-68, N-cyclopropyl-4-{6-(4-methoxy-3,5-dimethylphenyl)-8-[(2-methyl-propyl)amino]imidazo [1,2-a]pyrazin-3-yl} benzamide]: the IC50 was 19.7 nM. As to `CC(C)CNc1nc(-c2cccc(-c3ccccc3)c2)cn2c(-c3ccc(C(=O)NC4CC4)cc3)cnc12` [Example 1-69, 4-{6-(biphenyl-3-yl)-8-[(2-methylpropyl)amino]imidazo[1,2-a]pyrazin-3-yl}-N-cyclopropyl-benzamide], the IC50 came to 19.9 nM.

By IC50 is commonly meant the concentration that inhibits the measured activity by half.
